The text below walks through data of patent US7202261B2, “Calcilytic compounds” (NPS Pharmaceuticals, Inc., priority 1996, dated 2007).

Where a name gives a salt, the structure may show the parent alone.

The test system of the first experiment is Parathyroid cells.
Test: not given
The following applies: read-out: EC50 for mobilization of intracellular calcium; cited from earlier work.
`[H]/N=C(/N)N[C@H]1[C@H](O)[C@@H](O)[C@H](O[C@@H]2O[C@@H](C)[C@](O)(C=O)[C@H]2O[C@@H]2O[C@@H](CO)[C@H](O)[C@@H](O)[C@@H]2NC)[C@@H](N/C(N)=N\[H])[C@@H]1O` [streptomycin]: the EC50 was 600000 nM.

Take gentamicin: the concentration for a half-maximal effect (EC50) is 150000 nM.

Another experiment deals with T1, human calcium receptor (Homo sapiens, UniProt P41180).
T1 construct: expressed in transfected cells
T1 sequence (P41180 20-1078): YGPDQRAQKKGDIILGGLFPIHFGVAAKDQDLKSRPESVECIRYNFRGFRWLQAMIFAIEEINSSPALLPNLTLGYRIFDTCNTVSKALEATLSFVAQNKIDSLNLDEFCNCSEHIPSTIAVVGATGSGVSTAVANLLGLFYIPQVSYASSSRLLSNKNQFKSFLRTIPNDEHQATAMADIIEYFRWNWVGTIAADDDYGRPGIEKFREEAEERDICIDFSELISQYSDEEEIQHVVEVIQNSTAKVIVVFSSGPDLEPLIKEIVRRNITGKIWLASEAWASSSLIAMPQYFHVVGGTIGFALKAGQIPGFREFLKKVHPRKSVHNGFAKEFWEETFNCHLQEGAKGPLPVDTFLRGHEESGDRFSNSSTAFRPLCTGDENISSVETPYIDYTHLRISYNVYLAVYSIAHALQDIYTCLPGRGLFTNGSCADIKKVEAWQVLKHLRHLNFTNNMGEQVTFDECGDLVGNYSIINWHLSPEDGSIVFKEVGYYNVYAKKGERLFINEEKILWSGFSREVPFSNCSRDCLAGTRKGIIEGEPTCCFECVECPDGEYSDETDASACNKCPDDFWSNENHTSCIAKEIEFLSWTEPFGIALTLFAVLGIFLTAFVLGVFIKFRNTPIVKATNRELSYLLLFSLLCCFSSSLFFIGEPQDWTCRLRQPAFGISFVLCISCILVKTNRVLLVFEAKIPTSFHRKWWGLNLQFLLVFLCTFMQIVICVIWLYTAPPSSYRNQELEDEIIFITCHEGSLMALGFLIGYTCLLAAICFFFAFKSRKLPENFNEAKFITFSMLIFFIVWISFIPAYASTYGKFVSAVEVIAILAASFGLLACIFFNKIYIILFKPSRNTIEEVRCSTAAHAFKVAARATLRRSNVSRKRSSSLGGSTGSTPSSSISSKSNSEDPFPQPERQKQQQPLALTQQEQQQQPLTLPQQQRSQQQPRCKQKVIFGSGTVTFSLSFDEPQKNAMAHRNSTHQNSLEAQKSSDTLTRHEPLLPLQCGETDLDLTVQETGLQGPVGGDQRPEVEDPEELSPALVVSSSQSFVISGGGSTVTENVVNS
Kind of experiment: Calcium Receptor Inhibitor Assay. Type of experiment: cell-based. To be noted: HEK 293 4.0–7 cells stably expressing the human calcium receptor; fluo-3; read-out: IC50 for blocking increases of intracellular Ca2+ elicited by extracellular Ca2+. Put shortly:
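Intracellular Ca^2+ measured with fluo-3 at 37° C in stirred cell suspension. Buffer held 1 mM CaCl2 and 1 mg/mL D-glucose. Compound or vehicle added 90 seconds before extracellular Ca^2+ was raised from 1 to 2 mM, and calcilytic activity scored as concentration-dependent block of the intracellular Ca^2+ rise.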
Consider `CCCc1ccc(OCC(O)CNC(C)(C)Cc2ccc(OC)cc2)cc1` (centres unmarked) [Compound 149, N-[2-hydroxy-3-(4-n-propylphenoxy)propyl]-1,1-dimethyl-2-(4-methoxyphenyl)ethylamine Hydrochloride], for which the half-inhibitory concentration (IC50) was below 1000 nM.

Turning to `CCc1cccc(OCC(O)CNC(C)(C)Cc2ccc(OC)cc2)c1` (centres unmarked) [Compound 150, N-[2-Hydroxy-3-(3-ethylphenoxy)propyl)-1,1-dimethyl-2-(4-methoxyphenyl)ethylamine Hydrochloride], the concentration for half-maximal inhibition (IC50) is below 1000 nM.

Turning to `CCc1ccccc1OCC(O)CNC(C)(C)Cc1ccc(OC)cc1` (centres unmarked) [Compound 151, N-[2-hydroxy-3-(2-ethylphenoxy)propyl]-1,1-dimethyl-2-(4-methoxyphenyl)ethylamine Hydrochloride], the IC50 was below 1000 nM.

In the case of `COc1ccc(CC(C)(C)NCC(O)COc2ccc(OC(F)(F)F)cc2)cc1` (centres unmarked) [Compound 152, N-[2-hydroxy-3-(4-trifluoromethoxyphenoxy)propyl)-1,1-dimethyl-2-(4-methoxyphenyl)ethylamine Hydrochloride], the IC50 was below 10000 nM.

`COc1ccc(CC(C)(C)NCC(O)COc2ccccc2C(C)C)cc1` (centres unmarked) [Compound 153, N-[2-hydroxy-3-(2-iso-propylphenoxy)propyl]-1,1-dimethyl-2-(4-methoxyphenyl)ethylamine Hydrochloride]: the IC50 is below 1000 nM.

In the case of `COc1ccc(CC(C)(C)NCC(O)COc2cccc(OC(F)(F)F)c2)cc1` (centres unmarked) [Compound 154, N-[2-hydroxy-3-(3-trifluoromethoxyphenoxy)propyl]-1,1-dimethyl-2-(4-methoxyphenyl)ethylamine Hydrochloride], the half-maximal inhibitory concentration (IC50) was below 1000 nM.

Turning to `COc1ccc(CC(C)(C)NCC(O)COc2c(Cl)cccc2Cl)cc1` (centres unmarked) [Compound 155, N-[2-hydroxy-3-(2,6-dichlorophenoxy)propyl]-1,1-dimethyl-2-(4-methoxyphenyl)ethylamine Hydrochloride], the IC50 was below 10000 nM.

`COc1ccc(CC(C)(C)NCC(O)COc2cc(C(F)(F)F)cc(C(F)(F)F)c2)cc1` (centres unmarked) [Compound 156, N-[2-hydroxy-3-(3,5-bistrifluoromethylphenoxy)propyl]-1,1-dimethyl-2-(4-methoxyphenyl)ethylamine Hydrochloride]: the half-inhibitory concentration (IC50) was below 1000 nM.

On to `COc1ccc(CC(C)(C)NCC(O)COc2cc(Cl)cc(OC)c2)cc1` (centres unmarked) [Compound 157, N-[2-hydroxy-3-(3-chloro-5-methoxyphenoxy)propyl]-1,1-dimethyl-2-(4-methoxyphenyl)ethylamine Hydrochloride], for which the IC50 was below 1000 nM.

For `COc1ccc(CC(C)(C)NCC(O)COc2ccccc2[N+](=O)[O-])cc1` (centres unmarked) [Compound 159, N-[2-hydroxy-3-(2-nitrophenoxy)propyl]-1,1-dimethyl-2-(4-methoxyphenyl)ethylamine Hydrochloride], the half-maximal inhibitory concentration (IC50) was below 1000 nM.

As for `COc1ccc(CC(C)(C)NCC(O)COc2cccc(C#N)c2)cc1` (centres unmarked) [Compound 160, N-[2-hydroxy-3-(3-cyanophenoxy)propyl]-1,1-dimethyl-2-(4-methoxyphenyl)ethylamine Hydrochloride], the 50% inhibitory concentration (IC50) is below 1000 nM.

In the case of `COc1ccc(CC(C)(C)NCC(O)COc2ccc(C#N)cc2)cc1` (centres unmarked) [Compound 161, N-(2-hydroxy-3-(4-cyanophenoxy)propyl]-1,1-dimethyl-2-(4-methoxyphenyl)ethylamine Hydrochloride], the half-inhibitory concentration (IC50) was below 10000 nM.

As to `CCCN(CCC)S(=O)(=O)c1ccc(OC[C@H](O)CNC(C)(C)Cc2ccc(OC)cc2)c(Cl)c1Cl` [Compound 165, N-[2(R)-Hydroxy-3-[(2,3-dichloro-4-dipropylsulfamoyl)phenoxyl-1-propyl]-N-[1,1-dimethyl-2-(4-methoxyphenyl)ethyl]amine hydrochloride salt], the IC50 was below 1000 nM.

For the compound `CC(C)(Cc1ccc(Cl)c(Cl)c1)NC[C@@H](O)COc1c(C#N)sc2ccccc12` [Compound 166], the IC50 is below 1000 nM.

Turning to `COc1ccc(CC(C)(C)NC[C@@H](O)COc2ccc3c(c2)[nH]c2ccccc23)cc1` [Compound 167], the concentration for half-maximal inhibition (IC50) was below 1000 nM.
